Drawing on patent US7294629B2, “Quinazoline derivatives” (Mitsubishi Pharma Corporation, priority 2001, dated 2007), this text covers IC50 for 30 molecules.

The target of the test is T1, EGF receptor partially purified by A431 cell line (Homo sapiens, UniProt P00533).
T1 construct: A431 cell membrane fraction, which was used for the assay as an enzyme source of partially purified EGF receptor; endogenous in cells; host or cells: A431 human epidermoid cancer cells (membrane fraction, 100,000 G pellet)
T1 sequence (P00533 25-1210): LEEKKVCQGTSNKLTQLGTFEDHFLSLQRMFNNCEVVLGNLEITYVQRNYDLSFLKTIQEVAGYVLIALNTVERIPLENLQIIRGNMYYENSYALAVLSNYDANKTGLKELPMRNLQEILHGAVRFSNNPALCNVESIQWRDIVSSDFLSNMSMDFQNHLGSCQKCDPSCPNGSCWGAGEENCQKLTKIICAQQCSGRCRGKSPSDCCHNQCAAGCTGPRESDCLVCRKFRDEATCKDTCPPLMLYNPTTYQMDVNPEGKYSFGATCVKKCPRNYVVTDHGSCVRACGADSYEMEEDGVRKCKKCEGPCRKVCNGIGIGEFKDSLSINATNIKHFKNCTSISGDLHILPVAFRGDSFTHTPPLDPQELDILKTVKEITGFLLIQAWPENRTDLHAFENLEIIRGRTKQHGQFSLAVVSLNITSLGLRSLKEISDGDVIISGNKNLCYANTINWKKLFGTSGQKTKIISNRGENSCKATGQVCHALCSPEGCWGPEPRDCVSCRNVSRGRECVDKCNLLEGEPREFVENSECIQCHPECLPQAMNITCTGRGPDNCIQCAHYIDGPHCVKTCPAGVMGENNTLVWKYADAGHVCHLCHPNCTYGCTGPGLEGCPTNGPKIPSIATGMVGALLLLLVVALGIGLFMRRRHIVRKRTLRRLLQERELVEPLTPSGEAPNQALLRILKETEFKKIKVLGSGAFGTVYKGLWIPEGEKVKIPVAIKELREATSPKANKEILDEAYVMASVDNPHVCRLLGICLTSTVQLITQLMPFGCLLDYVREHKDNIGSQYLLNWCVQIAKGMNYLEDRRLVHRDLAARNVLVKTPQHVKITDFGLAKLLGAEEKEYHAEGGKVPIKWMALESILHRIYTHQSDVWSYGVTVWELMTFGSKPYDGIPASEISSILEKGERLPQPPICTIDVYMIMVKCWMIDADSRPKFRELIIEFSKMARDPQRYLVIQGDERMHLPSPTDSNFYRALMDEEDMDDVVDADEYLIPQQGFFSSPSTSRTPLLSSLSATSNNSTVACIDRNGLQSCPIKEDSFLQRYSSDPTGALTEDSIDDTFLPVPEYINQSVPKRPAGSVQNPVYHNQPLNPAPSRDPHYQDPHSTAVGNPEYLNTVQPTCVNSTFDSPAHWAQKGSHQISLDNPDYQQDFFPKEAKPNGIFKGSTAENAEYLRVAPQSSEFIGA
Description: EGFR tyrosine kinase inhibitory action (A431 cell membrane fraction, 32P-ATP, Angiotensin II substrate). In kind it is biochemical. The settings on record: EGF-stimulated, 10 μM ATP, in ice for 30 min. As to the method: Specific method was as follows.
A431 cells were cultured in Dulbecco's Modified Eagle Medium (DMEM) containing 10% of fetal calf serum (FBS) at 37° C. under 5% carbon dioxide gas, and homogenized in a solution containing 10 mM N-2-hydroxyethylpiperazino-N′-2-ethanesulfonic acid (Hepes) buffer (pH 7.4), 0.25 M sucrose and 0.1 mM EDTA, and separated by centrifugation at 3000 G for 5 min. The supernatant was separated by centrifugation at 100,000 G for 30 min to separate A431 cell membrane fraction, which was used for the assay as an enzyme source of partially purified EGF receptor.
The reaction was carried out in ice for 30 min and 6 μL of 10 mg/mL bovine serum albumin and 25 μL of 20% trichloroacetic acid were added to stop the reaction. The reaction mixture was left in ice as it was for 30 min.
The mixture was centrifuged at 5000 G for 2 min and the supernatant was sampled by 40 μL and adsorbed on P81 phosphocellulose paper. […] This rinsing was repeated 4 times. The paper was taken out, the ^32P count was measured on a liquid scintillation counter and this value was taken as A.
Simultaneously, a reaction without the test substance and a reaction without the test substance and EGF were also measured and the counts thereof were taken as B and C, respectively.
The tyrosine kinase inhibitory rate can be determined from the following formula based on these values. Percent Inhibition (%)=100−{(A−C)/(B−C)}×100
As for `CCOc1cc2ncnc(Nc3ccc(F)c(Cl)c3)c2cc1C#CC(C)(C)N1CCCCC1` [1bn], the IC50 – broadly, the midpoint of a concentration-inhibition curve – came to 3.5 nM.

Turning to `CCCN1CCN(C(C)(C)C#Cc2cc3c(Nc4ccc(F)c(Cl)c4)ncnc3cc2OC)CC1` [1bd], the IC50 is 3 nM. To `CC(C)(C#Cc1cc2ncnc(Nc3ccc(F)c(Cl)c3)c2cc1NS(C)(=O)=O)N1CCN(CCC#N)CC1` [1cw] belongs 2.5 nM; to `C=CC(=O)Nc1cc2c(Nc3ccc(F)c(Cl)c3)ncnc2cc1C#CC(C)(C)N1CCN(CC#N)CC1` [1c], 3.9 nM. The molecule `CCOc1cc2ncnc(Nc3ccc(F)c(Cl)c3)c2cc1C#CC(C)(C)N1CCN(C)CC1` [1bp] yielded an IC50 of 2.1 nM.

In turn, `CCOc1cc2ncnc(Nc3ccc(F)c(Cl)c3)c2cc1C#CC(C)(C)N(CC)CCC(=O)OC` [1bab] gave an IC50 of 5.6 nM.

`CCOc1cc2ncnc(Nc3ccc(F)c(Cl)c3)c2cc1C#CC(C)(C)N1CCC(OC)CC1` [1baf] came in with an IC50 of 3.3 nM. Molecule `CN1CCC(N(C)C(C)(C)C#Cc2cc3ncnc(Nc4ccc(F)c(Cl)c4)c3cc2NS(C)(=O)=O)CC1` [1cj] gave an IC50 of 2.7 nM. The same measure for `CCN1CCN(C(C)(C)C#Cc2cc3ncnc(Nc4ccc(F)c(Cl)c4)c3cc2NS(C)(=O)=O)CC1` [1ch]: 2.6 nM; for `CCOc1cc2ncnc(Nc3ccc(F)c(Cl)c3)c2cc1C#CC(C)(C)N1CCN(CCC#N)CC1` [1bae]: 2.5 nM. `COc1cc2ncnc(Nc3ccc(F)c(Cl)c3)c2cc1C#CC(C)(C)N1CCN(CC(C)C)CC1` [1be] registered an IC50 of 8 nM.

The molecule `CCOc1cc2ncnc(Nc3ccc(F)c(Cl)c3)c2cc1C#CC(C)(C)N(C)CCN(C)C` [1bo] showed an IC50 of 2.2 nM.

Turning to `CC(C)(C#Cc1cc2ncnc(Nc3ccc(F)c(Cl)c3)c2cc1NS(C)(=O)=O)N1CCN(CC#N)CC1` [1ca], the midpoint of inhibition, the IC50, lay at 7.7 nM. In the case of `C#Cc1cccc(Nc2ncnc3cc(OCC)c(C#CC(C)(C)N4CCN(CC#N)CC4)cc23)c1` [1bai], the IC50 amounted to 1.8 nM.

Consider `CN1CCN(C2(C#Cc3cc4ncnc(Nc5ccc(F)c(Cl)c5)c4cc3NS(C)(=O)=O)CCCCC2)CC1` [1cm], for which half-maximal inhibition (IC50) was put at 5.2 nM. To `CCC(C#Cc1cc2ncnc(Nc3ccc(F)c(Cl)c3)c2cc1NS(C)(=O)=O)(CC)N1CCN(C)CC1` [1cr] belongs 3.4 nM; to `CCOc1cc2ncnc(Nc3ccc(F)c(Cl)c3)c2cc1C#CC(CC)(CC)N1CCN(C)CC1` [1bag], 5.1 nM; to `COc1cc2ncnc(Nc3ccc(F)c(Cl)c3)c2cc1C#CC(C)(C)N1CCN(CC#N)CC1` [1bb], 1.3 nM. With `CCOc1cc2ncnc(Nc3ccc(F)c(Cl)c3)c2cc1C#CC(C)(C)N1CCN(CC)CC1` [1bz], the midpoint of inhibition, the IC50, lay at 2.2 nM. The same measure for `COc1cccc(Nc2ncnc3cc(OC)c(C#CC(C)(C)N4CCN(C)CC4)cc23)c1` [1bh]: 4.4 nM; for `CCOc1cc2ncnc(Nc3ccc(F)c(Cl)c3)c2cc1C#CC(C)(C)N1CCN(CCOC)CC1` [1bah]: 2.6 nM. The same measure for `CCN(CCC(=O)OC)C(C)(C)C#Cc1cc2ncnc(Nc3ccc(F)c(Cl)c3)c2cc1NS(C)(=O)=O` [1cu]: 5.5 nM; for `C#Cc1cccc(Nc2ncnc3cc(OCC)c(C#CC(C)(C)N(C)CCN(C)C)cc23)c1` [1ban]: 2.6 nM; for `COc1cc2ncnc(Nc3ccc(F)c(Cl)c3)c2cc1C#CC(C)(C)N1CCN(C)CC1` [1ba]: 1.1 nM. The same measure for `CCOc1cc2ncnc(Nc3ccc(F)c(Cl)c3)c2cc1C#CC(C)(C)N1CCN(S(C)(=O)=O)CC1` [1bad]: 4 nM. `CCOc1cc2ncnc(Nc3ccc(F)c(Cl)c3)c2cc1C#CC(C)(C)N(C)CCOC` [1bl] registered an IC50 of 2.2 nM.

`CN1CCN(C(C)(C)C#Cc2cc3ncnc(Nc4ccc(F)c(Cl)c4)c3cc2NS(C)(=O)=O)CC1` [1cg] had an IC50 of 2.1 nM. To `CCOc1cc2ncnc(Nc3ccc(F)c(Cl)c3)c2cc1C#CC(C)(C)NCCN1CCOCC1` [1bx] belongs 3.4 nM; to `CCOc1cc2ncnc(Nc3ccc(F)c(Cl)c3)c2cc1C#CC(C)(C)N(C)CCC#N` [1bm], 2.8 nM.

The molecule `CCOc1cc2ncnc(Nc3ccc(F)c(Cl)c3)c2cc1C#CC(C)(C)N1CCC(O)CC1` [1bv] returned an IC50 of 1.5 nM.
